In patent US9879049B2, “Glycopeptide antibiotic analogs effective against vancomycin-resistant bacterial strains” (The Scripps Research Institute, priority 2011, dated 2018):
Converted amounts (≈) assume the structure as drawn. Where two headings read alike, the source gives them in different places. Blank lines part the entries; values can stand above or below the compound they belong to.

Legend:
[1] = system: N,N′-Ac2-Lys-D-Ala-D-Ala; assay: Titration binding assay (UV difference) with model D-Ala-D-Ala ligand; details: for ligand, Ka, 6, X = NH: model ligand 6 (D-Ala-D-Ala), 0.02 M sodium citrate buffer pH 5.1; for Ka(6/7): ratio of Ka for ligand 6 (D-Ala-D-Ala) to ligand 7 (D-Ala-D-Lac)
Protocol: (§1) The binding constants for compounds 6 and 8 for association with the model ligands N,N′-Ac2-Lys-D-Ala-D-Ala (2) and N,N′-Ac2-Lys-D-Ala-D-Lac (4) were determined according to literature protocol.^30 UV difference measurements were carried out on a CARY 3E UV-Vis spectrometer. UV scans were run with a baseline correction that consisted of 0.02 M sodium citrate buffer (pH=5.1) and covered the range from 200 to 345 nm. A solution of 6 or 8 (7.7×10^−5M in 0.02 M sodium citrate buffer) was placed into a quartz UV cuvette (0.1 cm path length) and the UV spectrum recorded versus a reference cell containing 0.02 M sodium citrate buffer. UV spectra were recorded after each addition of a solution of N,N′-Ac2-Lys-D-Ala-D-Ala (2) or N,N′-Ac2-Lys-D-Ala-D-Lac (4) in 0.02 M sodium citrate buffer to each cell from 0.1 to 60.0 equivalents. The absorbance value at the λmax was recorded and the running change in absorbance, ΔAx equiv (Ainitial−Ax equiv), measured. The number of ligand equivalents was plotted versus ΔA to afford the ligand binding titration curve. The break point of this curve is the saturation point of the system and its xy coordinates were determined by establishing the intersection of the linear fits of the pre- and post-saturation curves. ΔAsaturation was calculated and employed to determine the concentration of free ligand in solution at each titration point. ΔA was plotted versus ΔA/free ligand concentration to give a Scatchard plot from which the binding constants were determined.
(§2) Titration Binding Assays with Model D-Ala-D-Ala and D-Ala-D-Lac Ligands 6 and 7.
(§3) The binding constants for all compounds for association with the model ligands N,N′-Ac2-Lys-D-Ala-D-Ala (6) and N,N′-Ac2-Lys-D-Ala-D-Lac (7) were determined according to literature protocol. UV difference experiments were carried out on a CARY 3E UV-Vis spectrometer. UV scans were run with a baseline correction that consisted of 0.02 M sodium citrate buffer (pH=5.1) and covered a range from 200 to 345 nm. A solution of the vancomycin aglycon derivative (7.7×10^−5 M in 0.02 M sodium citrate buffer) was placed into a quartz UV cuvette (0.1 cm path length) and the UV spectrum recorded versus a reference cell containing 0.02 M sodium citrate buffer. UV spectra were recorded after each addition of a solution of N,N′-Ac2-Lys-D-Ala-D-Ala (6) or N,N′-Ac2-Lys-D-Ala-D-Lac (7) in 0.02 M sodium citrate buffer to each cell from 0.1 to 60.0 equivalents. The absorbance value at the λmax was recorded and the running change in absorbance, ΔAx equiv (Ainitial−Ax equiv), measured. The number of ligand equivalents was plotted versus ΔA to afford the ligand binding titration curve. The break point of this curve is the saturation point of the system and its xy coordinates were determined by establishing the intersection of the linear fits of the pre and postsaturation curves. ΔAsaturation was calculated and employed to determine the concentration of free ligand in solution at each titration point. ΔA was plotted versus ΔA/free ligand concentration to give a Scatchard plot from which the binding constants were determined.

[2] = system: E. faecalis (BM4166, VanA VRE); assay: MIC by broth microdilution, VanA VRE; type: cell-based; details: for MIC: Enterococcus faecalis, read-out: VanA MIC (minimum inhibitory conc.)
Protocol: E. faecalis (BM4166) was propagated and MIC's were determined in duplicate by the broth microdilution method according to standard microbiological practice. See: Clinical and Laboratory Standards Institute. Methods for Dilution Antimicrobial Susceptibility Tests for Bacteria That Grow Aerobically; Approved Standard, 7th ed.; CLSI document M07-A8; Clinical and Laboratory Standards Institute: Wayne, Pa., 2009. Cudic, M.; Condie, B. A.; Weiner, D. J.; Lysenko, E. S.; Xiang, Z. Q.; Insug, O.; Bulet, P.; Otvos, L., Jr.; Peptides 2002, 23, 271.
(§4) S. Aureus (ATCC 25923) and E. Faecalis (BM4166) were propagated and MICs were determined in duplicate by the broth microdilution method according to standard microbiological practice. (Clinical and Laboratory Standards Institute. Methods for Dilution Antimicrobial Susceptibility Tests for Bacteria That Grow Aerobically; Approved Standard, 7th ed.; CLSI document M07-A8; Clinical and Laboratory Standards Institute: Wayne, Pa., 2009.)

[3] = system: N,N′-Ac2-Lys-D-Ala-D-Lac; assay: Titration binding assay (UV difference) with model D-Ala-D-Lac ligand; details: for ligand, Ka, 7, X = O: model ligand 7 (D-Ala-D-Lac), 0.02 M sodium citrate buffer pH 5.1
Protocol: Titration Binding Assays with Model D-Ala-D-Ala and D-Ala-D-Lac Ligands 2 and 4.
as §1, §2, §3

[4] = amidine group; cited from earlier work
[5] = system: S. Aureus (ATCC 25923); assay: MIC by broth microdilution, vancomycin-sensitive S. aureus; type: cell-based; details: Staphylococcus aureus, ATCC25923
Protocol: as §4

[6] = system: sensitive bacterial strains; assay: Activity against sensitive bacterial strains; type: cell-based; details: read-out: MIC against sensitive bacterial strains
[7] = system: D-Ala-D-Lac, substrate model 4 (X═O); details: cited from earlier work
[8] = system: substrate model 3 (X═CH2); details: substrate model 3 (X═CH2) versus model 2; cited from earlier work
[9] = system: Vancomycin-resistant bacteria (VanA and VanB); details: resistant bacteria with D-Ala-D-Lac precursor; cited from earlier work

- binding of D-Ala-D-Ala versus D-Ala-D-Lac ([1]; D-Ala-D-Ala bound more effectively than D-Ala-D-Lac): ≥ 120 fold
- affinity for D-Ala-D-Ala, fold less than parent amide 8 or amidine 10 ([1]; relative to 8 or 10): 20 fold
- MIC ([2]; E. faecalis BM4166, VanA VRE): > 40 µg/mL
- binding of D-Ala-D-Lac ([3]; result in words): failed to bind
- MIC [5]: 10 µg/mL (≈ 8.67 µM)
Compound: CN[C@H](CC(C)C)C(=O)N[C@H]1C(=O)N[C@@H](CC(N)=O)C(=O)N[C@H]2C(=NC#N)NC3C(=O)N[C@H](C(=O)N[C@H](CO)c4cc(O)cc(O)c4-c4cc3ccc4O)[C@H](O)c3ccc(c(Cl)c3)Oc3cc2cc(c3O)Oc2ccc(cc2Cl)[C@H]1O (single isomer, unassigned) [Compound 14]
- pKa [4]: 1

Compound: CN[C@H](CC(C)C)C(=O)N[C@H]1C(=O)N[C@@H](CC(N)=O)C(=O)N[C@H]2C(=O)N[C@H]3C(=O)N[C@H](C(=O)N[C@H](C(=O)O)c4cc(O)cc(O)c4-c4cc3ccc4O)[C@H](O)c3ccc(c(Cl)c3)Oc3cc2cc(c3O)Oc2ccc(cc2Cl)[C@H]1O [Compound 2, vancomycin aglycone, reference compound]
- ligand, Ka, 6, X = NH [1]: 170000 M⁻¹
- Ka(6/7) [1]: 1400
- MIC ([2]; VRE): 640 µg/mL (≈ 559 µM)
- ligand, Ka, 7, X = O [3]: 120 M⁻¹
- MIC [6]: 0.3 to 2 µg/mL (≈ 0.262 to 1.75 µM)

Compound: CN[C@H](CC(C)C)C(=O)N[C@H]1C(=O)N[C@@H](CC(N)=O)C(=O)N[C@H]2C(=N)NC3C(=O)N[C@H](C(=O)N[C@H](C(=O)O)c4cc(O)cc(O)c4-c4cc3ccc4O)[C@H](O)c3ccc(c(Cl)c3)Oc3cc2cc(c3O)Oc2ccc(cc2Cl)[C@H]1O [Compound 4, [Ψ[C(═NH)NH]Tpg^4]Vancomycin Aglycon]
- ligand, Ka, 6, X = NH [1]: 73000 M⁻¹
- Ka(6/7) [1]: 1.05
- MIC ([2]; VRE): 0.31 µg/mL (≈ 0.271 µM)
- ligand, Ka, 7, X = O [3]: 69000 M⁻¹
- pKa [4]: 12.5

Compound: CN[C@H](CC(C)C)C(=O)N[C@H]1C(=O)N[C@@H](CC(N)=O)C(=O)N[C@H]2C(=S)NC3C(=O)N[C@H](C(=O)N[C@H](C(=O)O)c4cc(O)cc(O)c4-c4cc3ccc4O)[C@H](O)c3ccc(c(Cl)c3)Oc3cc2cc(c3O)Oc2ccc(cc2Cl)[C@H]1O [Compound 5, [Ψ[C(═S)NH]Tpg^4]Vancomycin Aglycon]
- ligand, Ka, 6, X = NH [1]: 170 M⁻¹
- binding to D-Ala-D-Ala ([1]; result in words, FIG. 3): completely disrupt binding
- MIC ([2]; VRE): > 640 µg/mL
- antimicrobial activity ([2]; result in words, FIG. 3): lacked any antimicrobial activity
- ligand, Ka, 7, X = O [3]: 11 M⁻¹
- binding to D-Ala-D-Lac ([3]; result in words, FIG. 3): completely disrupt binding

- relative affinity for ligands 6 and 7 ([1]; D-Ala-D-Ala versus D-Ala-D-Lac, result in words): near equal affinities
- times less effective than parent amidine 10 at binding D-Ala-D-Ala ligand 6 ([1]; relative to 10): 30 to 50 times
- MIC ([2]; E. faecalis BM4166, VanA VRE): 20 µg/mL (≈ 17.5 µM)
- times less effective than parent amidine 10 at binding D-Ala-D-Lac ligand 7 ([3]; relative to 10): 30 to 50 times
Compound: CN=C1NC2C(=O)N[C@H](C(=O)N[C@H](CO)c3cc(O)cc(O)c3-c3cc2ccc3O)[C@H](O)c2ccc(c(Cl)c2)Oc2cc3cc(c2O)Oc2ccc(cc2Cl)[C@@H](O)[C@@H](NC(=O)[C@@H](CC(C)C)NC)C(=O)N[C@@H](CC(N)=O)C(=O)N[C@@H]13 [Compound 11]
- fold less potent than 10 against VanA VRE ([2]; relative to parent amidine 10): 60 fold

Compound: CN[C@H](CC(C)C)C(=O)N[C@H]1C(=O)N[C@@H](CC(N)=O)C(=O)N[C@H]2C(=O)N[C@H]3C(=O)N[C@H](C(=O)N[C@H](C(=O)O)c4cc(O)cc(O)c4-c4cc3ccc4O)[C@H](O)c3ccc(c(Cl)c3)Oc3cc2cc(c3O[C@@H]2O[C@H](CO)[C@@H](O)[C@H](O)[C@H]2O[C@H]2C[C@](C)(N)[C@H](O)[C@H](C)O2)Oc2ccc(cc2Cl)[C@H]1O [vancomycin]
- loss in Gibbs free energy of binding ΔG° ([7]; 25° C., substrate model 4 (X═O) versus model 2): 3.1 kcal/mol
- reduction of binding affinity for the altered ligand D-Ala-D-Lac ([7]; versus D-Ala-D-Ala): 1000 fold
- free energy loss of binding [8]: about 1.5 kcal/mole
- loss in antimicrobial activity [9]: 1000 fold

Compound: [Ψ-[CH2NH]Tpg^4]vancomycin aglycon [Compound 3, reference compound]
- ligand, Ka, 6, X = NH [1]: 4800 M⁻¹
- Ka(6/7) [1]: 0.9
- VanA MIC (minimum inhibitory conc.) ([2]; E. faecalis BM4166, VanA VRE): 31 µg/mL
- ligand, Ka, 7, X = O [3]: 5200 M⁻¹
